# Tests used:
# CDK12/CycK = CDK12/CycK (Homo sapiens, UniProt Q9NYV4); assay: CDK12/CycK high ATP kinase assay (TR-FRET, 2 mM ATP); assay type: biochemical; details: 2 mM ATP (high ATP); median; read-out: CDK12/CyclinK, 2 mM ATP (high ATP), IC50-[mol/l] (median)
# How it was run: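 Read-out is TR-FRET (Eu-anti-rabbit IgG, anti-phospho-c-Myc Ser62 antibody, streptavidin-XL665) after EDTA stop. Reaction ran 60 min at 22 °C using 1 µM biotin-peptide and high ATP (2 mM) with roughly 0.75 nM recombinant CDK12/CycK, after 15 min compound pre-binding; normalised emission ratios yield IC50.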
# [1] = system: CAL-120, human breast adenocarcinoma cells; assay: Proliferation assay CAL-120 (crystal violet, 4 days); assay type: cell-based; details: Homo sapiens, CAL-120, 96 h, CAL-120 cells, median, read-out: Prolif-CAL-120, IC50-[mol/l] (median)
# How it was run: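 IC50 from a 4-parameter fit of crystal violet absorbance (595 nm), scaled between a day-0 plate (0%) and untreated wells (100%). Cells grown in 10% FCS medium were exposed to test substances at 0.01-10 µmol/L for 4 days, 0.1% DMSO final.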
# [2] = system: BRCA1 mRNA expression in MDA-MB-231 cells; assay: qRT-PCR assay: BRCA1 mRNA expression in MDA-MB-231; assay type: cell-based, human; details: Homo sapiens, MDA-MB-231, Inhibition of BRCA1 mRNA expression in MDA-MB-231 cells; median; read-out: RTqPCR-MDA-MB-231, IC50, BRCA1 (median)
# How it was run: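 Seed 200,000 cells/well; 24 h later add compound, continuous exposure 24 h; extract RNA, 600 ng to cDNA; RT-qPCR, normalised to GAPDH.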
# CDK12/CycK, sequence (Q9NYV4 with tags, fused parts or gaps): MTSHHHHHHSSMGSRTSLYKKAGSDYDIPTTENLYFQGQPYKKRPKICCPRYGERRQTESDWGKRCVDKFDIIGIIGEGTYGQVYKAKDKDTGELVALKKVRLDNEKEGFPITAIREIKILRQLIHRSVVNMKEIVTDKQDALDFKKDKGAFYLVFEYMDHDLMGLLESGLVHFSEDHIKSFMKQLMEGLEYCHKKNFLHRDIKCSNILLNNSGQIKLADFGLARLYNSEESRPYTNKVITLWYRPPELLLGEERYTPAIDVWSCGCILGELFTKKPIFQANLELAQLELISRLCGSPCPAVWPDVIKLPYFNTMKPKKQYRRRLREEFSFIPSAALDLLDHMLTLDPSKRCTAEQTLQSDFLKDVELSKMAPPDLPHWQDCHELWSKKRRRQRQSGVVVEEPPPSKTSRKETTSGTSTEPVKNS
# CDK12/CycK, sequence (O75909 1-300 partner limits assumed): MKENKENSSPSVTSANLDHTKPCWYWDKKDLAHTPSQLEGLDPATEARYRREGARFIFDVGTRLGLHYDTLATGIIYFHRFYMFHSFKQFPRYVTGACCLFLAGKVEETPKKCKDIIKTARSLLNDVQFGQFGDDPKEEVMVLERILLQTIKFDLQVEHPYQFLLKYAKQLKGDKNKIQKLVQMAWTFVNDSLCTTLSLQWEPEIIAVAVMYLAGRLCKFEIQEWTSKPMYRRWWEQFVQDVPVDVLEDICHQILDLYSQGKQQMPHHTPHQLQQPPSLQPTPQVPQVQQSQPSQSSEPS
IC50 (CDK12/CycK),IC50 [1],IC50 [2],SMILES
> 20 µM,189 nM,–,"Brc1cnn2c(NCc3nc4ccccc4[nH]3)nc(OCCN3CCCC3)nc12 [Example 404, N-[(1H-benzimidazol-2-yl)methyl]-8-bromo-2-[2-(pyrrolidin-1-yl)ethoxy]pyrazolo[1,5-a][1,3,5]triazin-4-amine]"
> 7.86 µM,44.6 nM,–,"O=C(O)C(F)(F)F.c1ccc2[nH]c(CNc3nc(N4CCOCC4)nc4c(-c5ccnnc5)cnn34)nc2c1 [Example 438, trifluoroacetic acid N-[(1H-benzimidazol-2-yl)methyl]-2-(morpholin-4-yl)-8-(pyridazin-4-yl)pyrazolo[1,5-a][1,3,5]triazin-4-amine]"
> 20 µM,358 nM,–,"COc1cccc2nc(CNc3nc(N4CCN(C)CC4)nc4c(-c5nccs5)cnn34)[nH]c12 [Example 416, N-[(7-methoxy-1H-benzimidazol-2-yl)methyl]-2-(4-methylpiperazin-1-yl)-8-(1,3-thiazol-2-yl)pyrazolo[1,5-a][1,3,5]triazin-4-amine]"
> 20 µM,46.8 nM,–,"Cc1cnn2c(NCc3nc4ccccc4[nH]3)nc(N3CCOCC3)nc12 [Example 393, N-[(1H-benzimidazol-2-yl)methyl]-8-methyl-2-(morpholin-4-yl)pyrazolo[1,5-a][1,3,5]triazin-4-amine]"
2.21 µM,–,39 nM,"CC(C)c1cnn2c(NCc3ncc(-c4ccccc4)[nH]3)nc(N(C)CC(C)(C)O)nc12 [Example 35, 2-methyl-1-{methyl[4-{[(5-phenyl-1H-imidazol-2-yl)methyl]amino}-8-(propan-2-yl)pyrazolo[1,5-a][1,3,5]triazin-2-yl]amino}propan-2-ol]"
> 20 µM,209 nM,–,"CN1CCN(c2nc(NCc3nc4cc(Cl)c(Cl)cc4[nH]3)n3ncc(-c4cnn(C)c4)c3n2)CC1 [Example 420, N-[(5,6-dichloro-1H-benzimidazol-2-yl)methyl]-2-(4-methylpiperazin-1-yl)-8-(1-methyl-1H-pyrazol-4-yl)pyrazolo[1,5-a][1,3,5]triazin-4-amine]"
3.95 µM,36.3 nM,–,"COc1cccc2nc(CNc3nc(N4CCOCC4)nc4c(-c5ccnnc5)cnn34)[nH]c12.O=C(O)C(F)(F)F [Example 439, trifluoroacetic acid N-[(7-methoxy-1H-benzimidazol-2-yl)methyl]-2-(morpholin-4-yl)-8-(pyridazin-4-yl)pyrazolo[1,5-a][1,3,5]triazin-4-amine]"
> 20 µM,79.5 nM,–,"Cn1cc(-c2cnn3c(NCc4nc5cc(Cl)c(Cl)cc5[nH]4)nc(N4CCOCC4)nc23)cn1 [Example 419, N-[(5,6-dichloro-1H-benzimidazol-2-yl)methyl]-8-(1-methyl-1H-pyrazol-4-yl)-2-(morpholin-4-yl)pyrazolo[1,5-a][1,3,5]triazin-4-amine]"
> 20 µM,64.4 nM,–,"Cn1cc(-c2cnn3c(NCc4nc5c(F)c(F)ccc5[nH]4)nc(N4CCOCC4)nc23)cn1 [Example 418, N-[(4,5-difluoro-1H-benzimidazol-2-yl)methyl]-8-(1-methyl-1H-pyrazol-4-yl)-2-(morpholin-4-yl)pyrazolo[1,5-a][1,3,5]triazin-4-amine]"
> 20 µM,252 nM,–,"Brc1cnn2c(NCc3nc4ccccc4[nH]3)nc(OCC3CC3)nc12 [Example 408, N-[(1H-benzimidazol-2-yl)methyl]-8-bromo-2-(cyclopropylmethoxy)pyrazolo[1,5-a][1,3,5]triazin-4-amine]"
> 20 µM,62.2 nM,–,"Brc1cnn2c(NCc3nc4ccccc4[nH]3)nc(OC3CCCCC3)nc12 [Example 406, N-[(1H-benzimidazol-2-yl)methyl]-8-bromo-2-(cyclohexyloxy)pyrazolo[1,5-a][1,3,5]triazin-4-amine]"
> 5.71 µM,80.4 nM,–,"COc1cccc2[nH]c(CNc3nc(N4CCOCC4)nc4c(-c5nccs5)cnn34)nc12 [Example 414, N-[(4-methoxy-1H-benzimidazol-2-yl)methyl]-2-(morpholin-4-yl)-8-(1,3-thiazol-2-yl)pyrazolo [1,5-a][1,3,5]triazin-4-amine]"
> 20 µM,–,–,"CC(C)c1cnn2c(NCc3nnc(-c4ccccc4)[nH]3)nc(N3CCN(C)CC3)nc12 [Example 37, 2-(4-methylpiperazin-1-yl)-N-[(5-phenyl-4H-1,2,4-triazol-3-yl)methyl]-8-(propan-2-yl)pyrazolo[1,5-a][1,3,5]triazin-4-amine]"
> 20 µM,41.1 nM,–,"Clc1cc2nc(CNc3nc(N4CCOCC4)nc4c(-c5cscn5)cnn34)[nH]c2cc1Cl [Example 424, N-[(5,6-dichloro-1H-benzimidazol-2-yl)methyl]-2-(morpholin-4-yl)-8-(1,3-thiazol-4-yl)pyrazolo [1,5-a][1,3,5]triazin-4-amine]"
> 5.71 µM,–,–,"CCNc1nc(NCc2nnc(-c3ccccc3)[nH]2)n2ncc(C(C)C)c2n1 [Example 38, N^2-ethyl-N^4-[(5-phenyl-4H-1,2,4-triazol-3-yl)methyl]-8-(propan-2-yl)pyrazolo[1,5-a][1,3,5]triazine-2,4-diamine]"
> 15.8 µM,99 nM,–,"CC(C)COc1nc(NCc2nc3ccccc3[nH]2)n2ncc(Br)c2n1 [Example 409, N-[(1H-benzimidazol-2-yl)methyl]-8-bromo-2-(2-methylpropoxy)pyrazolo[1,5-a][1,3,5]triazin-4-amine]"
> 20 µM,108 nM,–,"CN1CCN(c2nc(NCc3nc4ccccc4[nH]3)n3ncc(CC(F)(F)F)c3n2)CC1 [Example 436, N-[(1H-benzimidazol-2-yl)methyl]-2-(4-methylpiperazin-1-yl)-8-(2,2,2-trifluoroethyl)pyrazolo [1,5-a][1,3,5]triazin-4-amine]"
> 5.71 µM,1130 nM,–,"NCCOCCOCCNc1nc(NCc2nc3ccccc3[nH]2)n2ncc(Br)c2n1 [Example 412, N2-{2-[2-(2-aminoethoxy)ethoxy]ethyl}-N4-[(1H-benzimidazol-2-yl)methyl]-8-bromopyrazolo[1,5-a][1,3,5]triazine-2,4-diamine]"
> 20 µM,47.4 nM,–,"CN1CCN(c2nc(NCc3nc4ccccc4[nH]3)n3ncc(C4CC4(F)F)c3n2)CC1 (stereo not drawn) [Example 428, N-(1H-benzimidazol-2-ylmethyl)-8-(2,2-difluorocyclopropyl)-2-(4-methylpiperazin-1-yl)pyrazolo[1,5-a][1,3,5]triazin-4-amine]"
> 20 µM,83 nM,–,"CN(C)CCOc1nc(NCc2nc3ccccc3[nH]2)n2ncc(Br)c2n1 [Example 399, N-[(1H-benzimidazol-2-yl)methyl]-8-bromo-2-[2-(dimethylamino)ethoxy]pyrazolo[1,5-a][1,3,5]triazin-4-amine]"
> 20 µM,135 nM,–,"Brc1cnn2c(NCc3nc4ccccc4[nH]3)nc(OC3CCOCC3)nc12 [Example 405, N-[(1H-benzimidazol-2-yl)methyl]-8-bromo-2-[(oxan-4-yl)oxy]pyrazolo[1,5-a][1,3,5]triazin-4-amine]"
> 20 µM,268 nM,–,"CN1CCN(c2nc(NCc3nc4c(F)c(F)ccc4[nH]3)n3ncc(-c4nccs4)c3n2)CC1 [Example 415, N-[(4,5-difluoro-1H-benzimidazol-2-yl)methyl]-2-(4-methylpiperazin-1-yl)-8-(1,3-thiazol-2-yl)pyrazolo[1,5-a][1,3,5]triazin-4-amine]"
> 20 µM,79 nM,–,"Brc1cnn2c(NCc3nc4ccccc4[nH]3)nc(OC3CCNCC3)nc12 [Example 411, N-[(1H-benzimidazol-2-yl)methyl]-8-bromo-2-[(piperidin-4-yl)oxy]pyrazolo[1,5-a][1,3,5]triazin-4-amine]"
> 17.5 µM,171 nM,–,"Cc1cnn2c(NCc3nc4ccccc4[nH]3)nc(N(C)CC(C)(C)O)nc12 [Example 397, 1-[(4-{[(1H-benzimidazol-2-yl)methyl]amino}-8-methylpyrazolo[1,5-a][1,3,5]triazin-2-yl)(methyl)amino]-2-methylpropan-2-ol]"
> 20 µM,151 nM,–,"COC(C)(C)COc1nc(NCc2nc3ccccc3[nH]2)n2ncc(Br)c2n1 [Example 403, N-[(1H-benzimidazol-2-yl)methyl]-8-bromo-2-(2-methoxy-2-methylpropoxy)pyrazolo[1,5-a][1,3,5]triazin-4-amine]"
14.6 µM,67.4 nM,–,"CC(C)(O)COc1nc(NCc2nc3ccccc3[nH]2)n2ncc(Br)c2n1 [Example 398, 1-[(4-{[(1H-benzimidazol-2-yl)methyl]amino}-8-bromopyrazolo[1,5-a][1,3,5]triazin-2-yl)oxy]-2-methylpropan-2-ol]"
> 20 µM,55 nM,–,"Cc1cnn2c(NCc3nc4ccccc4[nH]3)nc(N3CCN(C)CC3)nc12 [Example 396, N-[(1H-benzimidazol-2-yl)methyl]-8-methyl-2-(4-methylpiperazin-1-yl)pyrazolo[1,5-a][1,3,5]triazin-4-amine]"

SMILES,IC50 (CDK12/CycK),IC50 [1],IC50 [2]
"Cc1cnn2c(NCc3nc4ccccc4[nH]3)nc(N3CC4CCC(C3)N4)nc12 [Example 401, N-[(1H-benzimidazol-2-yl)methyl]-2-(3,8-diazabicyclo[3.2.1]octan-3-yl)-8-methylpyrazolo[1,5-a][1,3,5]triazin-4-amine]",> 20 µM,43.5 nM,–
